Source: PubChem BioAssay (NCI)
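96-well plates; 48 h exposure; 5 concentrations. Endpoints by linear interpolation between flanking doses. Not reached: highest tested concentration assigned. At the GI50, growth is halved. TGI: concentration producing complete growth inhibition.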

Legend:
Assay in all cases: NCI anticancer screen, dose series, 48 h
[1] = system: NCI-H460 lung
[2] = system: NCI-H522 lung
[3] = system: SN12C renal
[4] = system: UACC-62 melanoma
[5] = system: OVCAR-8 ovarian
[6] = system: SNB-19 CNS
[7] = system: T-47D breast
[8] = system: RPMI-8226 leukemia
[9] = system: SK-OV-3 ovarian
[10] = system: NCI-H23 lung
[11] = system: SK-MEL-5 melanoma
[12] = system: COLO 205 colon
[13] = system: HT29 colon
[14] = system: HCT-15 colon
[15] = system: 786-0 renal
[16] = system: MDA-MB-435
[17] = system: HCT-116 colon
[18] = system: SNB-75 CNS
[19] = system: A498 renal
[20] = system: K-562 leukemia
[21] = system: A549 NSCLC
[22] = system: SR leukemia
[23] = system: BT-549 breast
[24] = system: HCC-2998 colon
[25] = system: MALME-3M melanoma
[26] = system: IGROV1 ovarian
[27] = system: SK-MEL-28 melanoma
[28] = system: CAKI-1 renal
[29] = system: UACC-257 melanoma
[30] = system: ACHN renal
[31] = system: SK-MEL-2 melanoma
[32] = system: SF-539 CNS
[33] = system: HOP-92 NSCLC
[34] = system: PC-3 prostate
[35] = system: OVCAR-5 ovarian
[36] = system: HOP-62 NSCLC
[37] = system: M14 melanoma
[38] = system: TK-10 renal
[39] = system: HS 578T breast
[40] = system: DU-145 prostate
[41] = system: MOLT-4 leukemia
[42] = system: U251 CNS
[43] = system: HL-60(TB) leukemia
[44] = system: RXF 393 renal
[45] = system: SW-620 colon
[46] = system: NCI/ADR-RES ovarian
[47] = system: MCF7 breast
[48] = system: SF-268 CNS
[49] = system: KM12 colon
[50] = system: OVCAR-4 ovarian
[51] = system: LOX IMVI melanoma
[52] = system: CCRF-CEM leukemia
[53] = system: OVCAR-3 ovarian
[54] = system: SF-295 CNS
[55] = system: NCI-H226 lung
[56] = system: UO-31 renal
[57] = system: MDA-MB-231 breast

**Q.** Which GI50 [1] does the source give for `O=C1NC(=N[C@@H](CO)c2ccccc2)S/C1=C\c1ccc2ncccc2c1` here?
**A.** 7.75 µM

**Q.** What about the TGI [1] of the same compound?
**A.** > 25 µM

**Q.** And the GI50 [2]?
**A.** 5.93 µM

**Q.** What about the TGI [2] of the same compound?
**A.** > 20 µM

**Q.** What about the GI50 [3] of the same compound?
**A.** 8.1 µM

**Q.** And the TGI [3]?
**A.** > 25 µM

**Q.** What about the GI50 [4] of the same compound?
**A.** 10.4 µM

**Q.** And the TGI [4]?
**A.** > 25 µM

**Q.** What about the GI50 [5] of the same compound?
**A.** 8.93 µM

**Q.** And the TGI [5]?
**A.** > 25 µM

**Q.** What about the GI50 [6] of the same compound?
**A.** 24.2 µM

**Q.** What about the TGI [6] of the same compound?
**A.** > 25 µM

**Q.** What about the GI50 [7] of the same compound?
**A.** 15.5 µM

**Q.** What about the TGI [7] of the same compound?
**A.** > 25 µM

**Q.** What about the GI50 [8] of the same compound?
**A.** 8.16 µM

**Q.** What about the TGI [8] of the same compound?
**A.** > 25 µM

**Q.** What about the GI50 [9] of the same compound?
**A.** 8.1 µM

**Q.** What about the TGI [9] of the same compound?
**A.** > 25 µM

**Q.** What about the GI50 [10] of the same compound?
**A.** 8.92 µM

**Q.** And the TGI [10]?
**A.** > 25 µM

**Q.** What about the GI50 [11] of the same compound?
**A.** 9.14 µM

**Q.** And the TGI [11]?
**A.** > 25 µM

**Q.** And the GI50 [12]?
**A.** 5.5 µM

**Q.** What about the TGI [12] of the same compound?
**A.** 15.9 µM

**Q.** What about the GI50 [13] of the same compound?
**A.** 6.63 µM

**Q.** What about the TGI [13] of the same compound?
**A.** > 25 µM

**Q.** What about the GI50 [14] of the same compound?
**A.** 6.19 µM

**Q.** What about the TGI [14] of the same compound?
**A.** > 25 µM

**Q.** What about the GI50 [15] of the same compound?
**A.** > 21.9 µM

**Q.** What about the TGI [15] of the same compound?
**A.** > 25 µM

**Q.** What about the GI50 [16] of the same compound?
**A.** 3.65 µM

**Q.** What about the TGI [16] of the same compound?
**A.** 15.3 µM

**Q.** And the GI50 [17]?
**A.** 5.22 µM

**Q.** What about the TGI [17] of the same compound?
**A.** > 25 µM

**Q.** And the GI50 [18]?
**A.** 3.64 µM

**Q.** And the TGI [18]?
**A.** > 25 µM

**Q.** What about the GI50 [19] of the same compound?
**A.** 4.29 µM

**Q.** What about the TGI [19] of the same compound?
**A.** > 21.9 µM

**Q.** What about the GI50 [20] of the same compound?
**A.** 9.04 µM

**Q.** What about the TGI [20] of the same compound?
**A.** > 25 µM

**Q.** What about the GI50 [21] of the same compound?
**A.** 9.83 µM

**Q.** And the TGI [21]?
**A.** > 25 µM

**Q.** And the GI50 [22]?
**A.** 1.53 µM

**Q.** What about the TGI [22] of the same compound?
**A.** 12.7 µM

**Q.** What about the GI50 [23] of the same compound?
**A.** 4.07 µM

**Q.** And the TGI [23]?
**A.** > 18.5 µM

**Q.** What about the GI50 [24] of the same compound?
**A.** 11.2 µM

**Q.** And the TGI [24]?
**A.** > 25 µM

**Q.** And the GI50 [25]?
**A.** 13.4 µM

**Q.** What about the TGI [25] of the same compound?
**A.** > 25 µM

**Q.** And the GI50 [26]?
**A.** 4.71 µM

**Q.** What about the TGI [26] of the same compound?
**A.** > 18.3 µM

**Q.** And the GI50 [27]?
**A.** > 20.2 µM

**Q.** What about the TGI [27] of the same compound?
**A.** > 25 µM

**Q.** And the GI50 [28]?
**A.** 3.06 µM

**Q.** And the TGI [28]?
**A.** > 25 µM

**Q.** What about the GI50 [29] of the same compound?
**A.** 13.9 µM

**Q.** And the TGI [29]?
**A.** > 25 µM

**Q.** What about the GI50 [30] of the same compound?
**A.** 3.97 µM

**Q.** What about the TGI [30] of the same compound?
**A.** > 25 µM

**Q.** And the GI50 [31]?
**A.** 4.73 µM

**Q.** What about the TGI [31] of the same compound?
**A.** 12.9 µM

**Q.** And the GI50 [32]?
**A.** 5.86 µM

**Q.** And the TGI [32]?
**A.** 22 µM

**Q.** And the GI50 [33]?
**A.** 11.1 µM

**Q.** And the TGI [33]?
**A.** > 25 µM

**Q.** And the GI50 [34]?
**A.** > 25 µM

**Q.** And the TGI [34]?
**A.** > 25 µM

**Q.** What about the GI50 [35] of the same compound?
**A.** > 25 µM

**Q.** What about the TGI [35] of the same compound?
**A.** > 25 µM

**Q.** What about the GI50 [36] of the same compound?
**A.** 12.7 µM

**Q.** And the TGI [36]?
**A.** > 25 µM

**Q.** What about the GI50 [37] of the same compound?
**A.** 6.16 µM

**Q.** And the TGI [37]?
**A.** > 25 µM

**Q.** What about the GI50 [38] of the same compound?
**A.** 4.92 µM

**Q.** And the TGI [38]?
**A.** > 25 µM

**Q.** What about the GI50 [39] of the same compound?
**A.** 4.84 µM

**Q.** And the TGI [39]?
**A.** > 25 µM

**Q.** And the GI50 [40]?
**A.** 13.8 µM

**Q.** What about the TGI [40] of the same compound?
**A.** > 25 µM

**Q.** And the GI50 [41]?
**A.** 9.19 µM

**Q.** And the TGI [41]?
**A.** > 25 µM

**Q.** What about the GI50 [42] of the same compound?
**A.** 11 µM

**Q.** What about the TGI [42] of the same compound?
**A.** > 25 µM

**Q.** And the GI50 [43]?
**A.** 6.07 µM

**Q.** And the TGI [43]?
**A.** 19.4 µM

**Q.** What about the GI50 [44] of the same compound?
**A.** 5.84 µM

**Q.** What about the TGI [44] of the same compound?
**A.** > 25 µM

**Q.** What about the GI50 [45] of the same compound?
**A.** 7.25 µM

**Q.** What about the TGI [45] of the same compound?
**A.** > 25 µM

**Q.** What about the GI50 [46] of the same compound?
**A.** > 25 µM

**Q.** And the TGI [46]?
**A.** > 25 µM

**Q.** What about the GI50 [47] of the same compound?
**A.** 8.38 µM

**Q.** What about the TGI [47] of the same compound?
**A.** > 25 µM

**Q.** And the GI50 [48]?
**A.** 14.1 µM

**Q.** And the TGI [48]?
**A.** > 25 µM

**Q.** And the GI50 [49]?
**A.** 10.8 µM

**Q.** What about the TGI [49] of the same compound?
**A.** > 25 µM

**Q.** What about the GI50 [50] of the same compound?
**A.** 12.5 µM

**Q.** What about the TGI [50] of the same compound?
**A.** > 25 µM

**Q.** And the GI50 [51]?
**A.** 6.15 µM

**Q.** And the TGI [51]?
**A.** > 18.3 µM

**Q.** What about the GI50 [52] of the same compound?
**A.** 5.86 µM

**Q.** What about the TGI [52] of the same compound?
**A.** 21.2 µM

**Q.** What about the GI50 [53] of the same compound?
**A.** 14.8 µM

**Q.** What about the TGI [53] of the same compound?
**A.** > 25 µM

**Q.** What about the GI50 [54] of the same compound?
**A.** 14.4 µM

**Q.** And the TGI [54]?
**A.** > 25 µM

**Q.** What about the GI50 [55] of the same compound?
**A.** 11.7 µM

**Q.** What about the TGI [55] of the same compound?
**A.** > 25 µM

**Q.** What about the GI50 [56] of the same compound?
**A.** 4.53 µM

**Q.** What about the TGI [56] of the same compound?
**A.** > 21.2 µM

**Q.** What about the GI50 [57] of the same compound?
**A.** > 23.1 µM

**Q.** What about the TGI [57] of the same compound?
**A.** > 25 µM
